Several values for one entry are separate records, joined by “and”; a condition that tells them apart may be missing. Equal values may be shown once. Entries after “also recorded” stand apart in the source; their conditions may differ. Read-outs that look alike come from different tables or passages of the source. Marks after values point to notes of the source that are not given here.
Tests used:
[1] = cited from earlier work
[2] = Adverse event monitoring; type: in vivo, NSCLC patients
[3] = type: in vivo, NSCLC patients; settings: for AUC / Cmax: geomean; for Cmax: Cmax (CV %); for Cmax RD, PPI with milk vs. PPI with water (95% CI): n = 15
[4] = cited from earlier work; remark: listed apart in the source
[5] = Milk [n = 30], without and with esomeprazole
[6] = Water [n = 29], without and with esomeprazole

## C#Cc1cccc(Nc2ncnc3cc(OCCOC)c(OCCOC)cc23)c1 [erlotinib]
[1]; administered concomitantly with a high-fat meal ref 3
  Increase in exposure: 33–66%
[1]; high-fat meal taken 2 h after erlotinib administration ref 22
  AUC increase: 33%
[1]; high-fat meal, food and drug taken concomitantly ref 23
  Increase in AUC: 66%
[2]; Baseline [n = 30]
  All events, Grade 1–2: 29 (97) n (%)
  Alopecia, Grade 1–2: 12 (40) n (%)
  Constipation, Grade 1–2: 5 (17) n (%)
  Diarrhea, Grade 1–2: 6 (20) n (%)
  Fatigue, Grade 1–2: 10 (33) n (%)
  Nausea, Grade 1–2: 1 (3) n (%)
  Pain, Grade 1–2: 5 (17) n (%)
  Rash, Grade 1–2: 23 (77) n (%)
[2]; Baseline [n = 30], spinal fracture, not related to study procedures
  Serious adverse event, Grade 3: 1 (3%)^a n (%)
[2]; [5]
  All events, Grade 1–2: 28 (93) n (%)
  All events, Grade 3: 2 (6) n (%)
  Alopecia, Grade 1–2: 11 (37) n (%)
  Constipation, Grade 1–2: 3 (10) n (%)
  Diarrhea, Grade 1–2: 3 (10) n (%)
  Fatigue, Grade 1–2: 6 (20) n (%)
  Nausea, Grade 1–2: 3 (10) n (%)
  Nausea, Grade 3: 1 (3) n (%)
  Pain, Grade 1–2: 9 (30) n (%)
  Rash, Grade 1–2: 20 (67) n (%)
  Rash, Grade 3: 1 (3) n (%)
[2]; [6]
  All events, Grade 1–2: 28 (97) n (%)
  Alopecia, Grade 1–2: 11 (38) n (%)
  Constipation, Grade 1–2: 1 (3) n (%)
  Diarrhea, Grade 1–2: 3 (10) n (%)
  Fatigue, Grade 1–2: 10 (34) n (%)
  Nausea, Grade 1–2: 3 (10) n (%)
  Pain, Grade 1–2: 7 (24) n (%)
  Rash, Grade 1–2: 18 (62) n (%)
[2]; independent of study arm (with and without PPI)
  Difference in toxicities between milk and water periods: No differences in toxicities were observed; also recorded: Patient-reported toxicity was equal between the milk and water groups, with and without proton pump inhibitors. Hence, cow’s milk can be used as a safe alternative to water for the administration of erlotinib. Concomitant treatment with esomeprazole should be avoided if possible
[2]; overall
  Patient-reported adverse events during study compared with baseline: did not increase compared with baseline
[3]; No PPI with milk [n = 14]
  Tmax (IQR), median: 2.50 (2.00–3.00) hours
[3]; PPI (esomeprazole), with milk
  Interpatient variability (CV) in AUC24: 38%
[3]; PPI (esomeprazole), with water
  Interpatient variability (CV) in AUC24: 61%
[3]; both study arms, non-significant
  Increase in Tmax with milk vs water: 0.5 h
[3]; esomeprazole 40 mg once daily 3 h prior to erlotinib vs no esomeprazole, n = 9
  Decrease in erlotinib AUC24 by esomeprazole: 47% and ~50%
[3]; human, plasma, oral, AUC24 (CV %), No PPI [n = 9], patients in both study arms, corrected for coadministration with milk
  AUC: 20100 ng·h/mL
[3]; human, plasma, oral, AUC24 (CV %), PPI [n = 9], patients in both study arms, corrected for coadministration with milk
  AUC: 10600 ng·h/mL
[3]; human, plasma, oral, AUC24 (CV%), No PPI with milk [n = 14]
  AUC: 22400 ng·h/mL
[3]; human, plasma, oral, PPI [n = 9], patients in both study arms, corrected for coadministration with milk
  Cmax: 750 ng/mL
[3]; human, plasma, oral, PPI with milk [n = 15]
  Cmax: 820 ng/mL
[3]; human, plasma, po
  Tmax: 2.52 h
[3]; human, plasma, po, AUC24 (CV%), No PPI with water [n = 14]
  AUC: 23000 ng·h/mL
[3]; human, plasma, po, No PPI with water [n = 14]
  Cmax: 1850 ng/mL
[3]; human, plasma, po, PPI with water [n = 15]
  Cmax: 810 ng/mL
[3]; n = 14
  Cmax RD, no-PPI with milk vs. no-PPI with water (95% CI): 6%
[3]
  Cmax RD, PPI with milk vs. PPI with water (95% CI): 1%
[3]; listed as Erlotinib
  Cmax RD, PPI with milk vs. PPI with water (95% CI): 1.5% (− 12 to 17%)
[3]; no PPI, with milk
  Interpatient variability (CV) in AUC24: 35%
[3]; no PPI, with water
  Interpatient variability (CV) in AUC24: 37%
[3]; non-PPI patients, non-significant
  Decrease in AUC24 when administered with milk compared with water: 3%

## CS(=O)(=O)CCNCc1ccc(-c2ccc3ncnc(Nc4ccc(OCc5cccc(F)c5)c(Cl)c4)c3c2)o1 [lapatinib]
[1]; with a high-fat meal ref 3
  AUC increase: up to 325%
[1]; with a low-fat meal ref 3
  AUC increase: ≤ 200%

## Cc1cn(-c2cc(NC(=O)c3ccc(C)c(Nc4nccc(-c5cccnc5)n4)c3)cc(C(F)(F)F)c2)cn1 [nilotinib]
[4]
  Safety of coadministration with yoghurt: considered safe

From publication PMC7808986 (Clinical Pharmacokinetics, 2020)
